Laboratory results: US20140294753A1, “NOVEL USE OF GANODERMIC ACIDS FOR TREATING CANCER” (DOUBLE CRANE BIOTECHNOLOGY CO. LTD, priority 2013, published 2014)

How the values were obtained:
[1] = system: human non-small cell lung cancer cell line PC-9; test: Cell activity analysis (acid phosphatase, ACP); conditions: PC-9, 72 h, read-out: IC50 (50% cell activity inhibited)
Protocol: (§9) Each cell lines were cultured and maintained in Dulbecco's modified Eagle media (DMEM) supplemented with 1% fetal bovine serum (FBS), 100 IU/ml penicillin, 100 ng/ml streptomycin, 2 mM glutamine, non-essential amino acids and sodium pyruvate in 5% CO2 at 37° C. Cells were grown and maintained in Petri dishes (each was 10 cm in diameter) until reached 80% confluence, then were subject to cell passages. […] Collected the suspended cells, added 2 mL fresh culture media to neutralize any remaining activity of trypsin. Adjusted the cell density by adding appropriate amounts of culture medium to the cell suspension, which was then used to seed the culture plates. The plates were then returned to the incubator and cultured in accordance with the steps described above.
(§10) In operation, cultured cells in each well were washed with PBS (200 μl), then a reacting solution (100 μl) (10 mM p-NPP, 0.1 M sodium acetate, 0.1% Triton X-100, pH 5.5) was added and allowed to react with the cells for 30-40 min at 37° C. The reaction was subsequently stopped with a basic solution (10 μl, 0.1N NaOH). […]

[2] = system: gefitinib-resistant human non-small cell lung cancer cell line PC-9 (PC9-IR); test: Cell activity analysis (acid phosphatase, ACP)
Protocol: as §9, §10

[3] = system: human breast carcinoma cell line MDA-MB-231; test: Cell activity analysis (acid phosphatase, ACP); format: cell-based; conditions: Breast Cancer MDA-MB-231, treated at least 48 hrs, read-out: IC50 (50% cell activity inhibited)
Protocol: (§1) Cell lines used in the present disclosure include human lung adenocarcinoma cell line A549, human hepatocarcinoma cell line Huh7, human colon carcinoma cell line HCT116, human non-small cell lung cancer cell line PC-9, gefitinib-resistant human non-small cell lung cancer cell line PC-9 (PC9-IR), and human breast carcinoma cell line MDA-MB-231.
(§2) Each cell lines were cultured and maintained in Dulbecco's modified Eagle media (DMEM) supplemented with 1% fetal bovine serum (FBS), 100 IU/ml penicillin, 100 ng/ml streptomycin, 2 mM glutamine, non-essential amino acids and sodium pyruvate in 5% CO2 at 37° C. Cells were grown and maintained in Petri dishes (each was 10 cm in diameter) until reached 80% confluence, then were subject to cell passages. Briefly, cells were first washed with phosphate buffer solution (PBS, 3 ml) once, then treated with 0.05% Trypsin/0.025% EDTA solution (1 mL) for 5 min so that the attached cells become suspended. Collected the suspended cells, added 2 mL fresh culture media to neutralize any remaining activity of trypsin. Adjusted the cell density by adding appropriate amounts of culture medium to the cell suspension, which was then used to seed the culture plates. The plates were then returned to the incubator and cultured in accordance with the steps described above.
(§3) Cells were seeded in 96-well plates with a density of 3,000 cells/well and cultured in accordance with the procedures described above.
(§4) Acid Phosphatase analysis
(§5) Cell activity may be derived from the acid phosphatase (ACP) activity of a cell.
(§6) In operation, cultured cells in each well were washed with PBS (200 μl), then a reacting solution (100 μl) (10 mM p-NPP, 0.1 M sodium acetate, 0.1% Triton X-100, pH 5.5) was added and allowed to react with the cells for 30-40 min at 37° C. The reaction was subsequently stopped with a basic solution (10 μl, 0.1N NaOH). Adsorption at the wavelength of 405 nm was then measured, and the concentration that inhibited 50% cell activity (IC50) was derived from the absorbance measurement.
(§7) The effects of GMAS on various cancer cell lines, including colon cancer, hepatoma, breast cancer, and lung cancer, were respectively assessed by cell activity analysis using ACP activity as an indicator. Results are depicted in FIG. 1.

[4] = system: human colon carcinoma cell line HCT116; test: Cell activity analysis (acid phosphatase, ACP); format: cell-based; conditions: Colon Cancer HCT-116, treated at least 48 hrs, read-out: IC50 (50% cell activity inhibited)
Protocol: as §1, §2, §3, §4, §5, §6, §7

[5] = system: human hepatocarcinoma cell line Huh7; test: Cell activity analysis (acid phosphatase, ACP); format: cell-based; conditions: Hepatoma Huh-7, treated at least 48 hrs, read-out: IC50 (50% cell activity inhibited)
Protocol: as §1, §2, §3, §4, §5, §6, §7

[6] = system: human lung adenocarcinoma cell line A549; test: Cell activity analysis (acid phosphatase, ACP); format: cell-based; conditions: Lung Cancer A549, treated at least 48 hrs, read-out: IC50 (50% cell activity inhibited)
Protocol: as §1, §2, §3, §4, §5, §6, §7

HCT-116 cells = test: Wound healing assay (cell migration); format: cell-based, human; conditions: up to 72 hrs
Protocol: (§8) Wound healing assay is one of the earliest developed methods to study directional cell migration in vitro, by mimicking cell migration during wound healing in vivo. The basic steps involve creating a “wound” in a cell monolayer, capturing the images at the beginning and at regular intervals during cell migration to close the wound, and comparing the images to quantify the migration rate of the cells.
Briefly, the assay was carried out using IBIDI culture-inserts and 24-well plates (IBIDI GmbH, Martinsried, Germany). The culture-inserts were respectively placed into each well. Aliquots of […] containing 3×10^4 cells (PC-9, MDA-MB-231 or CL1-5 cells) were added into the two reservoirs of the same insert and incubated for 8 hrs, then the inserts were gently removed from each wells, then culture medium (500 μL, 10% FBS) containing GMAS (25 or 50 μM) or solvent vehicle (i.e., the control) was added to each well. The cells in the culture wells were photographed respectively at 0, 12, 24, 48 and 72 hrs using an inverted microscope. Finally, the migration area or the “wound” area was quantified by Metamorph software (Molecular Devices).
The effect of GMAS on the migration capability of colon cancer cells was assessed using the wound healing assay as described in the section of “Materials and Methods”. Results are illustrated in FIG. 3.

PC-9 cells = test: Wound healing assay (cell migration); format: cell-based, human; conditions: 5 μM GMAS; lung cancer cells (PC-9, FIG. 4)
Protocol: as §8
Briefly, the assay was carried out using IBIDI culture-inserts and 24-well plates (IBIDI GmbH, Martinsried, Germany). The culture-inserts were respectively placed into each well. Aliquots of […] containing 3×10^4 cells (PC-9, MDA-MB-231 or CL1-5 cells) were added into the two reservoirs of the same insert and incubated for 8 hrs, then the inserts were gently removed from each wells, then culture medium (500 μL, […]) or solvent vehicle (i.e., the control) was added to each well. The cells in the culture wells were photographed respectively at 0, 12, 24, 48 and 72 hrs using an inverted microscope. Finally, the migration area or the “wound” area was quantified by Metamorph software (Molecular Devices).

Question: For `CC(=O)O[C@H]1CC[C@]2(C)C3=CC[C@]4(C)[C@@H]([C@H](C)CC/C=C(\C)C(=O)O)C[C@H](OC(C)=O)[C@@]4(C)C3=CC[C@H]2C1(C)C` [GMAS, ganodermic acid S], which IC50 [1] is on record?
Answer: The IC50 was 56.1 µM.

Question: And the IC50 ([2]; Homo sapiens, 72 h, read-out: IC50 (50% cell activity inhibited))?
Answer: The IC50 was 62.8 µM.

Question: What about the “Resistant Ratio (PC9-IR/PC9)” value ([2]; IC50 of PC9-IR divided by IC50 of PC-9) of the same molecule?
Answer: The value was 1.1.

Question: And the IC50 [3]?
Answer: The IC50 was 20.4 µM.

Question: What about the IC50 [4] of the same molecule?
Answer: The IC50 was 8 µM.

Question: And the IC50 [5]?
Answer: The IC50 was 19.1 µM.

Question: And the IC50 [6]?
Answer: Its IC50 is 7.9 µM.

Question: What about the “wound closing phenomenon (migration of colon cancer cells)” value (HCT-116 cells; 25 μM GMAS) of the same molecule?
Answer: The value was “slightly inhibited”.

Question: What about the “wound closing phenomenon (migration of colon cancer cells)” value (HCT-116 cells; 50 μM GMAS) of the same molecule?
Answer: Its value is “significantly suppressed”.

Question: What about the “reduction of the migrated area as compared with control” value (PC-9 cells) of the same molecule?
Answer: Its value is 50%.
